The source of these data is US20220402916A1, “SMALL MOLECULE INHIBITORS OF KRAS G12C MUTANT” (Merck Sharp & Dohme Corp., priority 2019, published 2022).

The structures appear in SMILES notation.

T1 sequence (P01116 with tags, fused parts or gaps isoform P01116-2 G12C/C51S/C80L/C118S): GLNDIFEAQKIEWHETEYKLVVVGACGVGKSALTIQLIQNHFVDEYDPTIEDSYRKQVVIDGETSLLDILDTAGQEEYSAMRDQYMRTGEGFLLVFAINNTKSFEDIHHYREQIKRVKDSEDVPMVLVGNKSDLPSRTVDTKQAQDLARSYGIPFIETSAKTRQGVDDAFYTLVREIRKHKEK

The first assay addresses T1, Biotinylated KRAS G12C protein (Homo sapiens, UniProt P01116, C118S/C51S/C80L/G12C).
T1 construct: 183 amino acids; biotin on K10
The experiment in a line: SOS-catalyzed nucleotide exchange assay. In kind it is biochemical. The note with it: 10,000 nM; 60 minutes of preincubation prior to addition of SOS. The method, then: Compounds are added to this complex, and then after 60 minute incubation time the mixture is treated with recombinant SOS protein and unlabeled GTP. Small molecule inhibitors stabilize the Bodipy-GDP complex whereas the untreated protein rapidly exchanges Bodipy-GDP for unlabeled GTP resulting in reduced TR-FRET signal. […] This mixture is then further diluted to 90 nM in an assay buffer (20 mM HEPES, 150 mM sodium chloride, 10 mM magnesium chloride, and 0.005% Tween) containing 15 nM of Terbium-Streptavidin (Invitrogen, catalog #PV3577) and 900 nM of Bodipy-GDP and incubated at room temperature for six hours. […] Each test compound (10 mM stock in DMSO) is diluted in DMSO to make a 10-point, 3-fold dilution series in a 384-well low dead volume microplate (Labcyte, catalog #LP-0200). Once titrations are made, 10 nL of the diluted compounds is acoustically dispensed into a 384-well assay plate (Corning, catalog #3820) using an Echo 550 (Labcyte). […] Each well then receives 3 μL of 240 nM recombinant human SOS protein and 9 mM GTP (Sigma, G8877) in assay buffer and is incubated at room temperature for 60 minutes. The time-resolved fluorescence resonance energy transfer signal for the assay plate is measured on an Envision (PerkinElmer) plate reader: Excitation filter=340 nm; emission1=495 nm; emission2=520 nm; dichroic mirror=D400/D505; delay time=100 μs. The signal of each well is determined as the ratio of the emission at 520 nm to that at 495 nm. […] The apparent effect as a function of compound concentration is fit to a four parameter logistic equation.
`C=CC(=O)N1CCN(c2cc(C(=O)N3CCC[C@@H]3CN3CCC(=O)N3)nc3c2CCN(c2cccc4cccc(C)c24)C3)CC1` [Compound 43, (R)-1-((1-(4-(4-acryloylpiperazin-1-yl)-7-(8-methylnaphthalen-1-yl)-5,6,7,8-tetrahydro-1,7-naphthyridine-2-carbonyl)pyrrolidin-2-yl)methyl)pyrazolidin-3-one] showed an inhibition at 10 µM of 33%.

`C=CC(=O)N1CCN(c2cc(C(=O)N[C@@H]3COC[C@@H]3N3CCOCC3)nc3c2CCN(c2cccc4cccc(C)c24)C3)CC1` (racemic) [Compound 27, rac-4-(4-acryloylpiperazin-1-yl)-7-(8-methylnaphthalen-1-yl)-N-(cis-4-morpholinotetrahydrofuran-3-yl)-5,6,7,8-tetrahydro-1,7-naphthyridine-2-carboxamide] returned an inhibition at 10 µM of 29%.

For the molecule `C=CC(=O)N1CCN(c2cc(C(=O)NCC(C)(C)CN(C)C)nc3c2CCN(c2cccc4cccc(C)c24)C3)CC1` [Compound 22, 4-(4-acryloylpiperazin-1-yl)-N-(3-(dimethylamino)-2,2-dimethylpropyl)-7-(8-methylnaphthalen-1-yl)-5,6,7,8-tetrahydro-1,7-naphthyridine-2-carboxamide], the inhibition at 10 µM is 37%.

The assay is the same for the next values; noted with them: apparent potency; preincubation time of 60 minutes prior to addition of SOS.
Regarding `C=CC(=O)N1CCN(c2cc(C(=O)N[C@H]3COC[C@@H]3N(C)C)nc3c2CCN(c2cccc4cccc(C)c24)C3)CC1` (racemic) [Compound 32, rac-4-(4-acryloylpiperazin-1-yl)-N-(trans-4-(dimethylamino)tetrahydro-furan-3-yl)-7-(8-methylnaphthalen-1-yl)-5,6,7,8-tetrahydro-1,7-naphthyridine-2-carboxamide], the IC50 was 4470 nM.

Turning to `C=CC(=O)N1CCN(c2cc(C(=O)N3CCCC3CN3CCCCC3)nc3c2CCN(c2cccc4cccc(C)c24)C3)CC1` (racemic) [Compound 44, rac-1-(4-(7-(8-methylnaphthalen-1-yl)-2-(2-(piperidin-1-ylmethyl)pyrrolidine-1-carbonyl)-5,6,7,8-tetrahydro-1,7-naphthyridin-4-yl)piperazin-1-yl)prop-2-en-1-one], the IC50 came out at 7870 nM.

Regarding `C=CC(=O)N1CCN(c2cc(C(=O)NCC3CCCN(C)C3)nc3c2CCN(c2cccc4cccc(C)c24)C3)CC1` (racemic) [Compound 56, rac-4-(4-acryloylpiperazin-1-yl)-7-(8-methylnaphthalen-1-yl)-N-((1-methylpiperidin-3-yl)methyl)-5,6,7,8-tetrahydro-1,7-naphthyridine-2-carboxamide], the IC50 is 3650 nM.

As to `C=CC(=O)N1CCN(c2cc(C(=O)NCCN3CCCC3)nc3c2CCN(c2cccc4ccccc24)C3)CC1` [Compound 1, 4-(4-acryloylpiperazin-1-yl)-7-(naphthalen-1-yl)-N-(2-(pyrrolidin-1-yl)ethyl)-5,6,7,8-tetrahydro-1,7-naphthyridine-2-carboxamide], the IC50 was found to be 3920 nM.

As for `C=CC(=O)N1CCN(c2cc(C(=O)N[C@@H]3[C@H](N)CCCC3(F)F)nc3c2CCN(c2cccc4cccc(C)c24)C3)C[C@@H]1CC#N` [Compound 95, 4-((S)-4-acryloyl-3-(cyanomethyl)piperazin-1-yl)-N-((1R,6R)-6-amino-2,2-difluorocyclohexyl)-7-(8-methylnaphthalen-1-yl)-5,6,7,8-tetrahydro-1,7-naphthyridine-2-carboxamide], the IC50 amounted to 793 nM.

In the case of `C=CC(=O)N1CCN(c2cc(C(=O)NCC3CCN(C)C3)nc3c2CCN(c2cccc4cccc(C)c24)C3)CC1` (racemic) [Compound 58, rac-4-(4-acryloylpiperazin-1-yl)-7-(8-methylnaphthalen-1-yl)-N-((1-methylpyrrolidin-3-yl)methyl)-5,6,7,8-tetrahydro-1,7-naphthyridine-2-carboxamide], the IC50 came out at 2480 nM.
